Measured values from publication PMC9785441, “A Broad Spectrum Antiparasitic Activity of Organotin (IV) Derivatives and Its Untargeted Proteomic Profiling Using Leishmania donovani” (Pathogens, 2022).
pEC50, pIC50: −log10 of the molar value. Like-named read-outs stand apart in the source and are kept apart here.

Columns and labels:
[1] = tested on: L. donovani intracellular amastigotes; assay: L. donovani intracellular amastigote assay in B10R cells (high content imaging); assay type: cell-based, Leishmania donovani
Method: For the intracellular amastigote stage assay, L. donovani was incubated at a density of 1 × 10^6 parasites/mL for six days at 29 °C before infection to enrich the proportion of metacyclic promastigotes. B10R monocyte cell lines were cultured in RPMI supplemented with 10% FBS and 1%penicillin/streptomycin at 37 °C in 5% CO2. After 72 h, cells were counted with a hemocytometer and mixed with the six-day-old parasites. Into 384-well assay plates, that had been pre-spotted with compounds diluted 1000-fold in DMSO, with final assay concentrations ranging from 20 µM to 0.02 µM and tested in biological triplicates., 500 B10R cells and 7000 parasites were dispensed per well in a final volume of 50 µL using a Multidrop Combi liquid dispenser (ThermoScientific, Waltham, MA, USA). Plates were incubated at 37 °C and 5% CO2 for 72 h. Cultures were then fixed with 4% formaldehyde solution for 30 min and stained with 0.5 µg/mL DAPI (diamidino-2-phenylindole). Plates were then imaged using an ImageXpress Micro XLS automated high content imager (Molecular Devices, San Jose, CA, USA) using a 10× air objective. A custom image analysis module generated in ImageXpress was used to count the nuclei of host and parasite cells. EC50 values were obtained using the GraphPad Prism 9 Software with biological triplicates.

[2] = tested on: T. b. brucei Lister 427 bloodstream forms; assay: T. brucei bloodstream form viability assay (SYBR Green); assay type: cell-based, Trypanosoma brucei; details: for pEC50: bloodstream forms, 72 h
Method: Bloodstream forms of T. b. brucei Lister 427 were cultured in complete HMI-9 medium in T25 suspension culture flasks (Thermo Scientific, Cat. 12-566-84) and maintained at 37 °C and 5% CO2. Trypanosomes were kept in log-phase growth and passaged every 48 h. […] Pentamidine were used as a positive control for T. brucei assay. Compounds were diluted with fresh HMI-9 medium (99 µL/well). Parasites in log-phase were suspended at 2 × 10^5 parasites/mL in HMI-9 medium and then added to each well (100 µL) to give 2 × 10^4 trypanosomes/well. Assay plates were incubated at 37 °C and 5% CO2 for 72 h. Parasite lysate was obtained by addition of 50 µL/well of lysis solution (0.012% saponin, 0.12% Triton X-100, 7.5 mM ETDA, 30 mM Tris, pH 7.5) containing 0.3 µL/mL SYBR Green I (10,000× in DMSO; Invitrogen, Carlsbad, CA, USA). Assay plates were incubated in the dark for 1 h at room temperature. Fluorescence was measured at 485 nm excitation and 535 nm emission wavelengths using an EnVision multilabel plate reader (PerkinElmer, Waltham, MA, USA). In each assay plate, parasite viability was normalized relative to positive (pentamidine) and negative (0.5% DMSO) controls in each assay plate. Assays were performed in biological and technical duplicates, and dose–response and EC50 data were generated with GraphPad Prism 9 using a sigmoidal four parameter logistic curve.

[3] = tested on: L. donovani promastigotes; assay: L. donovani promastigote viability assay (resazurin); assay type: cell-based, Leishmania donovani; details: for pEC50: promastigotes, 48 h, read-out: EC50 L. donovani (pro)
Method: Promastigotes of L. donovani from late log phase culture were diluted to 2.0 × 10^6/mL in M-199 containing 10% FBS, 25 mM HEPES (Gibco 15630-080), 100 µM adenine, 12 mM NaHCO3, 10 µM folic acid, 1% penicillin/streptomycin (Gibco 15140-122) as described previously. Compounds and controls were transferred from compound plates to 384 well assay plates with the use of an acoustic transfer system (ATS, EDC Biosystems, Fremont, CA, USA). Promastigotes were incubated with compounds at 29 °C for 48 h. To measure parasite viability, resazurin sodium salt (7-hydroxy-3H-phenoxazin3-one 10-oxide) was dissolved in PBS and added to each well at a volume of 5 µL (final concentration of 44 µM). After incubating for 4 h at room temperature, fluorescence (ex 571 nm/em 584 nm) was recorded with an Envision (Perkin Elmer, Waltham, MA, USA) microplate fluorescence/luminescence reader. […] For positive and negative control amphotericin B and 0.5% DMSO was used, respectively. Dose response and EC50 analyses were obtained using GraphPad Prism 9 Software (Graph Pad Software Inc., San Diego, CA, USA).

C2C12 cells = assay: Cytotoxicity to C2C12 host cells; assay type: cell-based; details: mouse myoblast host cells, 72 h
Method: Mouse C2C12 myoblasts (ATCC CRL-1772) were cultivated in RPMI 1640 medium supplemented with 5% FBS and kept at 37 °C and 5% CO2. T. cruzi CAI-72 trypomastigotes were obtained from the supernatant of C2C12 cells infected four to seven days previously. For the assay, 500 C2C12 cells were mixed with 7500 T. cruzi parasites and seeded into 384-well plates at a 50 µL final volume. Test compounds and reference drugs (Benznidazole and K11777) were pre-spotted into the 384 well black bottom plates prior to the addition of cells and parasites with final assay concentration of 20 µM to 0.02 µM. The plates were incubated at 37 °C^, 5% CO2 for 72 h. Cultures were then fixed with 4% formaldehyde and 0.5 µg/mL DAPI (diamidino-2-phenylindole) was added for staining nucleic acids. Plates were kept protected from light for 1 h and then imaged in an ImageXpress Micro XLS automated high content imager (Molecular Devices, San Jose, CA, USA). Imaging and data analysis were performed as described for L. donovani amastigotes on biological triplicates.

[4] = tested on: N. fowleri (KUL strain) trophozoites; assay: N. fowleri trophozoite viability assay (CellTiter-Glo); assay type: cell-based, Naegleria fowleri; details: 48 h
Method: N. fowleri (KUL strain) was cultured in Nelson’s medium supplemented with 10% FBS and kept at 37 °C. For all experiments, trophozoites were harvested during the logarithmic phase of growth. Test compounds were serially diluted and transferred to a white solid bottomed 96-well tissue culture plate (E&K Scientific, Swedesboro, NJ, USA) followed by addition of 10,000 N. fowleri trophozoites in Nelson’s medium in a final volume of 100 µL and a final concentration of compounds ranging from 50 to 0.39 µM. Amphotericin B was used as positive control and assay plates were incubated for 48 h at 37 °C. Parasite viability was measured as described for E. histolytica and G. lamblia. EC50 values were obtained using the GraphPad Prism 9 Software.

[5] = in B10R cells, 72 h, read-out: EC50 L. donovani ntracelular amastigotes

pEC50 ([1]; Leishmania donovani, range over L. donovani and T. cruzi intracellular stages and both parent compounds, read-out: EC50 values against the intracellular stages of both parasites)	pEC50 ([4]; Naegleria fowleri)	Compound	pEC50 [1, 5]	pEC50 [2]	pEC50 [3]	CC50 (C2C12 cells)	pEC50 [4]	pEC50 ([2]; Trypanosoma brucei)	pIC50 ([3]; Figure S1 dose response curves, RFU, read-out: IC50 against the promastigotes of L. donovani)	L. donovani intracellular parasites eliminated ([1]; 5 µM)	T. brucei eliminated ([2]; 5 µM)
–	–	COc1ccc(NC(=O)CCC(=O)[O][Sn]([c]2ccccc2)([c]2ccccc2)[c]2ccccc2)cc1 [MS26Ph3]	5.04	7.05	6.41	0.41 µM	5.49	–	–	–	–
–	–	C=[CH][Sn]([CH]=C)([O]C(=O)CCC(=O)Nc1ccc(OC)cc1)[O]C(=O)CCC(=O)Nc1ccc(OC)cc1 [MS26vin2]	< 4.70	< 5.40	< 4.70	> 20 µM	< 5.00	–	–	–	–
–	–	CCC[CH2][Sn]([Cl])([Cl])[O]C(=O)CCC(=O)Nc1ccc(OC)cc1 [MS26BuSnCl2]	< 4.70	< 5.40	< 4.70	18.1 µM	< 5.00	–	–	–	–
–	–	COc1ccc(NC(=O)CCC(=O)[O-])cc1.[Na+] [MS26Na, sodium 4-(4-methoxyphenylamino)-4 oxobutanoate]	5.41	< 5.40	6.77	1.61 µM	< 5.00	–	–	–	–
–	–	CCC[CH2][Sn]([CH2]CCC)([CH2]CCC)[O]C(=O)CCC(=O)Nc1ccc(OC)cc1 [MS26Bu3]	6.68	7.30	6.66	0.22 µM	5.82	–	–	–	–
5.37 to 5.97	< 5.00	COc1ccc(NC(=O)CCC(=O)O)cc1 [MS26, 4-(4-methoxyphenylamino)-4 oxobutanoic acid]	5.97	–	< 4.70	> 20 µM	–	< 5.40	–	–	–
–	–	CCC[CH2][Sn]([CH2]CCC)([O]C(=O)CCC(=O)Nc1ccc(OC)cc1)[O]C(=O)CCC(=O)Nc1ccc(OC)cc1 [MS26Bu2]	6.55	6.54	6.12	0.14 µM	< 5.00	–	–	–	–
–	–	COc1ccc(NC(=O)CCC(=O)[O][Sn]([CH]2CCCCC2)([CH]2CCCCC2)[CH]2CCCCC2)cc1 [MS26Cy3]	–	7.10	–	–	5.12	–	6.22	–	–
–	–	C[CH2][Sn]([CH2]C)([CH2]C)[O]C(=O)CCC(=O)Nc1ccc(OC)cc1 [MS26Et3]	6.72	7.05	6.68	2.79 µM	5.85	–	–	> 95%	> 99%
–	–	COc1ccc(NC(=O)CCC(=O)[O][Sn]([CH3])([CH3])[CH3])cc1 [MS26Me3]	5.49	< 5.40	< 4.70	9.41 µM	< 5.00	–	–	–	–
